# Data taken from ChEMBL document CHEMBL5046278, “Synthesis and Evaluation of Novel Tetrahydronaphthyridine CXCR4 Antagonists with Improved Drug-like Profiles” (J Med Chem, 2022).
# How the values were obtained:
# [1] = Therapeutic index, ratio of TC50 for human TZM-bl cells to IC50 for antiviral activity against HIV-1 NL4-3 (X4) pseudovirus infected in human TZM-bl cells assessed as reduction in viral infectivity; assay type: toxicity, cell-based
# Homo sapiens [2] = organism: Homo sapiens; assay: Selectivity index, ratio of IC50 for inhibition of alpha7 nicotinic acetylcholine receptor (unknown origin) to IC50 for antagonist activity at human CXCR4 receptor expressed in CCRF-CEM cells; assay type: cell-based
# [3] = molecular target: T1, Alpha-2A adrenergic receptor (Homo sapiens, UniProt P08913); assay: Inhibition of alpha 2A adrenergic receptor (unknown origin)
# T1 sequence (P08913 whole entry): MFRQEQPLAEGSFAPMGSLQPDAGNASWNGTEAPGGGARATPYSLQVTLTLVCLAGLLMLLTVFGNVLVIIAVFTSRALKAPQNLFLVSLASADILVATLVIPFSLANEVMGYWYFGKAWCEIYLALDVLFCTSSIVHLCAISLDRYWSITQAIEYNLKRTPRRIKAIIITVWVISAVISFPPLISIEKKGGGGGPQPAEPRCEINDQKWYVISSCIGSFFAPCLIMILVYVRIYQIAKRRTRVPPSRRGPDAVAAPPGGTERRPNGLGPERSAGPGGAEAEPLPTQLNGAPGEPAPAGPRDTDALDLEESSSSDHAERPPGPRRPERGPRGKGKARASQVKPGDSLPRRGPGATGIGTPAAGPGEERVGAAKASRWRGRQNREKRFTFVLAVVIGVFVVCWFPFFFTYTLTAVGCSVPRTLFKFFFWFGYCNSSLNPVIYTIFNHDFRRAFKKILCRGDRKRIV
# [4] = molecular target: T2, Alpha-2C adrenergic receptor (Homo sapiens, UniProt P18825); assay: Inhibition of alpha 2C adrenergic receptor (unknown origin)
# T2 sequence (P18825 whole entry): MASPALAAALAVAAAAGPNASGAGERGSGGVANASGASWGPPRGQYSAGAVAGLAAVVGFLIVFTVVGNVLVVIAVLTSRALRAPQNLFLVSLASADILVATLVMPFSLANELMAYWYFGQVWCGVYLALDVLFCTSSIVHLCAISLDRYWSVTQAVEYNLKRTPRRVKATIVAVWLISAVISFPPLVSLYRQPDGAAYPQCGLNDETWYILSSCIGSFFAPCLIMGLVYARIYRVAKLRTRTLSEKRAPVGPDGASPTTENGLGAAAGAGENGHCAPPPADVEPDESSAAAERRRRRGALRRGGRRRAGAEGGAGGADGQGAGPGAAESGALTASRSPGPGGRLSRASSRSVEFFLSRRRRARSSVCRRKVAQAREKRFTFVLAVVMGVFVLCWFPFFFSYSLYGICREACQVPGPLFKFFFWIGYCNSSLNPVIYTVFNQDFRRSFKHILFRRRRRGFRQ
# [5] = molecular target: C-C chemokine receptor type 5 (Homo sapiens) (UniProt P51681); assay: Inhibition of human CCR5 at 10 uM relative to control
# C-C chemokine receptor type 5 (Homo sapiens), sequence (P51681 whole entry, looked up): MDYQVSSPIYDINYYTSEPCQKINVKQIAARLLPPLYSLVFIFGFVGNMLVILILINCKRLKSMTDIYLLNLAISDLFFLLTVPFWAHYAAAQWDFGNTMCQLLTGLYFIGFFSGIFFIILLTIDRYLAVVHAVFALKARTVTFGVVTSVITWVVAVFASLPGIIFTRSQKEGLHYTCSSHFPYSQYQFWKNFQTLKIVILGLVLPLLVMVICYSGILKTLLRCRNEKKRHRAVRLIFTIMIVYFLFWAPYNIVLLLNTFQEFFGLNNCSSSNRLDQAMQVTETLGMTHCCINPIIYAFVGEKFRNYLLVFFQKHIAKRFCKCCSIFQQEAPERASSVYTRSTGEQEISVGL
# [6] = Cmax in mouse at 30 mg/kg, po measured after 8 hrs by LC-MS/MS analysis; assay type: ADME, organism-based; design: route oral, dose 30 mg/kg, time 8 hrs; conditions: in vivo
# [7] = AUC(0 to 8 h) in mouse plasma at 30 mg/kg, po measured at 24 hrs by LC-MS/MS analysis; assay type: ADME, organism-based; design: route oral, time 24 hrs, dose 30 mg/kg; conditions: in vivo
# Homo sapiens [8] = organism: Homo sapiens; assay: Selectivity index, ratio of IC50 for inhibition of recombinant human CYP2C19 (unknown origin) to IC50 for antagonist activity at human CXCR4 receptor expressed in CCRF-CEM cells; assay type: cell-based
# [9] = molecular target: Kappa-type opioid receptor (Homo sapiens, UniProt P41145); assay: Inhibition of kappa opioid receptor (unknown origin)
# Kappa-type opioid receptor, sequence (P41145 whole entry): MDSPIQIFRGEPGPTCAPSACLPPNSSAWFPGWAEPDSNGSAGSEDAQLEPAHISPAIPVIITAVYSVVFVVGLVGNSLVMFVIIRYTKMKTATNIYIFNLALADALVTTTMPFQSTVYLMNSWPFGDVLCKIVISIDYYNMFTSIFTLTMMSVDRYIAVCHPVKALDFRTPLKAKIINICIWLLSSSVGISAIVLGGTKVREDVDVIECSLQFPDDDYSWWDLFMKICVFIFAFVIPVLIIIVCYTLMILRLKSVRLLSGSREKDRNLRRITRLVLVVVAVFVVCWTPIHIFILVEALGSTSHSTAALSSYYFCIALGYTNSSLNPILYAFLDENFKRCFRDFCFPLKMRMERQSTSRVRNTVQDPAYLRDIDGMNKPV
# Cytochrome P450 1A2 = Cytochrome P450 1A2 (Homo sapiens, UniProt P05177); assay: Inhibition of CYP1A2(unknown origin); assay type: ADME
# Cytochrome P450 1A2, sequence (P05177 whole entry): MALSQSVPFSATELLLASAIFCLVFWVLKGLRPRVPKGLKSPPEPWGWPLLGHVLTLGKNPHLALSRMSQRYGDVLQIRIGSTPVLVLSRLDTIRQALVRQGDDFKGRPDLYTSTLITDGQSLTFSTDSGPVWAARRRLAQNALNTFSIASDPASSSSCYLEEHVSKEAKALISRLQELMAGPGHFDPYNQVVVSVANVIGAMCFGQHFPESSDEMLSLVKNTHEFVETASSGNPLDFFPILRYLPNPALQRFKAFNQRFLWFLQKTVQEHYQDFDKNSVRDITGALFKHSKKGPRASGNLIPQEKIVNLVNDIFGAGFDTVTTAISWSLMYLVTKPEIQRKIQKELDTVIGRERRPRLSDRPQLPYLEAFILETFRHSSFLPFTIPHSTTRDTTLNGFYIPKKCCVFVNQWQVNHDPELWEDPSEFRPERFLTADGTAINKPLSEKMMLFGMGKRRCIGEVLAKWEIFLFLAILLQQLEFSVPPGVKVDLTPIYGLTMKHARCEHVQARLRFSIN
# Homo sapiens [10] = organism: Homo sapiens; assay: Selectivity index, ratio of IC50 for inhibition of recombinant human CYP2C9 to IC50 for antagonist activity at human CXCR4 receptor expressed in CCRF-CEM cells; assay type: cell-based
# Homo sapiens [11] = organism: Homo sapiens; assay: Selectivity index, ratio of IC50 for inhibition of M2 mAChR receptor (unknown origin) to IC50 for antagonist activity at human CXCR4 receptor expressed in CCRF-CEM cells; assay type: cell-based
# [12] = molecular target: C-C chemokine receptor type 6 (Homo sapiens) (UniProt P51684); assay: Inhibition of human CCR6 at 10 uM relative to control
# C-C chemokine receptor type 6 (Homo sapiens), sequence (P51684 whole entry): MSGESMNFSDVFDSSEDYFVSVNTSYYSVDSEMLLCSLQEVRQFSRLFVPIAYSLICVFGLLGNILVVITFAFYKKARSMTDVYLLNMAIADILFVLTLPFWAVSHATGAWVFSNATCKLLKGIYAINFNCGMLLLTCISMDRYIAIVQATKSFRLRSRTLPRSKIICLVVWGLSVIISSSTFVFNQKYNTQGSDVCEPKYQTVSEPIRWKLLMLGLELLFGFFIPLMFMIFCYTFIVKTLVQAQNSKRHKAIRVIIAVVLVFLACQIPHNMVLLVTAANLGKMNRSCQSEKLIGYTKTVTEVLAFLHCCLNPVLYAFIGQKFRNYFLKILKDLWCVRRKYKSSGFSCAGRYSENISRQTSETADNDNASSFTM
# [13] = Cmax in mouse at 3 mg/kg, po measured after 8 hrs by LC-MS/MS analysis; assay type: ADME, organism-based; design: route oral, time 8 hrs, dose 3 mg/kg; conditions: in vivo
# [14] = Metabolic stability in rat liver microsomes assessed compound remaining measured after 10 mins in presence of NADPH; assay type: ADME, Microsome; conditions: read-out: Stability
# [15] = Oral bioavailability in mouse at 30 mg/kg measured at 24 hrs by LC-MS/MS analysis; assay type: ADME, organism-based; conditions: in vivo
# Homo sapiens [16] = organism: Homo sapiens; assay: Selectivity index, ratio of IC50 for inhibition of kappa opioid receptor (unknown origin) to IC50 for antagonist activity at human CXCR4 receptor expressed in CCRF-CEM cells; assay type: cell-based
# Homo sapiens [17] = organism: Homo sapiens; assay: Selectivity index, ratio of IC50 for inhibition of alpha 2A adrenergic receptor (unknown origin) to IC50 for antagonist activity at human CXCR4 receptor expressed in CCRF-CEM cells; assay type: cell-based
# [18] = Clearence in mouse at 3 mg/kg, iv measured at 24 hrs by LC-MS analysis; assay type: ADME, organism-based; conditions: in vivo
# D(2) dopamine receptor = D(2) dopamine receptor (Homo sapiens, UniProt P14416); assay: Inhibition of dopamine D2 receptor (unknown origin)
# D(2) dopamine receptor, sequence (P14416 whole entry): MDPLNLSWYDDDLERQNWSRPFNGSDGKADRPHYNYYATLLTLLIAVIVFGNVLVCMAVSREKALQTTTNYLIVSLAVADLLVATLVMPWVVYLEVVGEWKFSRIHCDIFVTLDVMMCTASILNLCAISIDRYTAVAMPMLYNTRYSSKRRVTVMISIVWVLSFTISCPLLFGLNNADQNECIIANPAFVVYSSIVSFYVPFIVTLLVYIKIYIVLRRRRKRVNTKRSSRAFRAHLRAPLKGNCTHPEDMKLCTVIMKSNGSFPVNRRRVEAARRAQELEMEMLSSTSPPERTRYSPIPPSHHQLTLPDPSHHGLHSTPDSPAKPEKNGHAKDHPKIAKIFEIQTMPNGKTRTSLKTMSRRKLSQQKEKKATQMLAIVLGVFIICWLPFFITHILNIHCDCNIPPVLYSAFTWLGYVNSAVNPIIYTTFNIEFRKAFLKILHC
# [19] = test system: Human immunodeficiency virus 1; assay: Antiviral activity against HIV-1 NL4-3(X4) pseudovirus infected in human TZM-bl cells assessed as reduction in viral infectivity measured after 48 hrs of postinfection by luminescence assay; assay type: functional, organism-based; conditions: Human immunodeficiency virus 1, NL4-3(X4)
# [20] = Half life in mouse at 3 mg/kg, iv measured after 8 hrs by LC-MS/MS analysis; assay type: ADME, organism-based; conditions: in vivo
# [21] = Cmax in mouse at 10 mg/kg, po measured after 8 hrs by LC-MS/MS analysis; assay type: ADME, organism-based; design: route oral, time 8 hrs, dose 10 mg/kg; conditions: in vivo
# [22] = Volume of distribution in mouse at 3 mg/kg, measured at 24 hrs by LC-MS analysis; assay type: ADME, organism-based; conditions: in vivo
# Homo sapiens [23] = organism: Homo sapiens; assay: Selectivity index, ratio of IC50 for inhibition of dopamine D2 receptor (unknown origin) to IC50 for antagonist activity at human CXCR4 receptor expressed in CCRF-CEM cells; assay type: cell-based
# [24] = molecular target: C-X-C chemokine receptor type 3 (Homo sapiens) (UniProt P49682); assay: Inhibition of human CXCR3 at 10 uM relative to control
# C-X-C chemokine receptor type 3 (Homo sapiens), sequence (P49682 whole entry): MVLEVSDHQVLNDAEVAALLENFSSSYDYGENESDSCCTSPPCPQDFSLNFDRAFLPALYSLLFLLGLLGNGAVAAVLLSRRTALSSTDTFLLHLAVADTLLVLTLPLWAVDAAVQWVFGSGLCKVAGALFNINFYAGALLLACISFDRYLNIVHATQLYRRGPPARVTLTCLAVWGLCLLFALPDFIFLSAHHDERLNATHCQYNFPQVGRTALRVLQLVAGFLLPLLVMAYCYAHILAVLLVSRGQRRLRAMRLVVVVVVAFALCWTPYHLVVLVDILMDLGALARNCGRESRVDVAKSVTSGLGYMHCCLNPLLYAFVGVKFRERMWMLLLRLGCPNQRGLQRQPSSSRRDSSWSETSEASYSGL
# [25] = test system: Human immunodeficiency virus 1; assay: Antiviral activity against HIV-1 Z1800M E4.02 (R5) pseudovirus infected in human TZM-blcells assessed as reduction in viral infectivity measured after 48 hrs of postinfection by luminescence assay; assay type: functional, organism-based; conditions: Human immunodeficiency virus 1, Z1800M E4.02 (R5), TZM-bl
smiles,measurement,setting,value
CN(CCCCN(C[C@H]1Cc2ncccc2CN1)[C@H]1CCCc2cccnc21)C1CCC(F)(F)CC1,selectivity ratio,[1],> 1000
same,Selectivity Index,Homo sapiens [2],> 1000
same,IC50,[3],0.81 µM
same,IC50,[4],> 30 µM
same,inhibition,[5],< 5%
same,Cmax,[6],169 ng/mL
same,AUC,[7],717 h/ng/mL
same,Selectivity Index,Homo sapiens [8],> 710
same,IC50,[9],> 30 µM
same,IC50,Cytochrome P450 1A2,> 20 µM
same,Selectivity Index,Homo sapiens [10],> 710
same,Selectivity Index,Homo sapiens [11],> 1000
same,inhibition,[12],< 5%
same,Cmax,[13],12.8 ng/mL
same,remaining at 10 min,[14],8%
same,bioavailability,[15],27.1%
same,Selectivity Index,Homo sapiens [16],> 1000
same,Selectivity Index,Homo sapiens [17],> 1000
same,clearance,[18],188 mL/min/kg
same,IC50,D(2) dopamine receptor,> 30 µM
same,IC50,[19],0.007 µM
same,half-life,[20],5.89 h
same,Cmax,[21],54.8 ng/mL
same,Vd,[22],96.3 L/kg
same,Selectivity Index,Homo sapiens [23],> 1000
same,inhibition,[24],< 5%
same,IC50,[25],> 10 µM
